Values belong to the compound of their own block, whether it stands above or below them.
Columns and labels:
Format in all cases: physicochemical
[1] = Dynamic vapour sorption (DVS) with FT-Raman check pre- and post-measurement
Experimental: (§1) In the Examples the following conditions were used for measurements. • 1H-NMR: 1H-NMR spectra were recorded using a Bruker DPX300 spectrometer with a proton frequency of 300.13 MHz, a 30° excitation pulse, and a recycle delay of 1 s. 16 scans were accumulated. d6-DMSO was used as the solvent. • DSC: Differential scanning calorimetry was carried out with a Perkin Elmer DSC-7 instrument (closed gold sample pan under N2 atmosphere). • DVS (SPS): Sorption Measurement System SPS11-100n. The sample was placed in an Al crucible, and the sample was allowed to equilibrate at a given r.h. before starting a predefined humidity program. The used measurement program can be recognized in the corresponding figures (blue line). • FT-Raman spectroscopy: FT-Raman spectra were recorded on a Bruker RFS 100 FT-Raman system with a near infrared Nd:YAG laser operating at 1064 nm and a liquid nitrogen-cooled germanium detector. For each sample, a minimum of 64 scans with a resolution of 2 cm^−1 were accumulated. 300 mW laser power was used. The FT-Raman data are shown in the region between 3500 to 100 cm^−1. […] Sample preparation: The samples were generally measured without any special treatment other than the application of slight pressure to get a flat surface. […]
In order to examine the behaviour of Batch 1 in the presence of variable water vapour pressure, the sample was analyzed by DVS. […]

[2] = TG-FTIR thermogravimetry; conditions: 25° C. to 250° C., heating rate 10° C./min
Experimental: as §1
Batch 3 was analyzed by TG-FTIR in a temperature range of 25° C. to 250° C. and a heating rate of 10° C./min. […]

[3] = Thermodynamic stability of polymorphic forms (suspension equilibration of a mixture of forms, PXRD); conditions: for temperature range of thermodynamic stability (in words): enantiotropic polymorphs
Experimental: Polymorphic Form 2 has a melting signal at 196° C. as measured by differential scanning calorimetry and is stable at temperatures up to about 60-65° C.
A mixture with similar ratios of the products of Example 4, Experiment 15 (Form 1), Example 4, Experiment 9 (form 2+x) and Example 4, Experiment 6 (Form 2+Form 3) were suspended in acetonitrile and shaken for 13 days at 22° C. to give a product designated Product P24). The solid was recovered by filter centrifugation and characterized by PXRD. […] These signals could be assigned to (i) another crystalline form or (ii) the signals could not be detected for Product P24 because the diffractogram has a lower intensity.
Thus, after 13 days at 22° C. the PXRD corresponds to that of Form 2.

decomposition temperature [2]: > 160 °C
SMILES: Cc1c(Cc2cccnc2S(=O)(=O)c2ccc(F)cc2)c2cc(F)ccc2n1CC(=O)O [Batch 3, [5-fluoro-3-({2-[(4-fluorobenzene)sulfonyl]pyridin-3-yl}methyl)-2-methylindol-1-yl]-acetic acid]

most stable form after suspension equilibration ([3]; mixture of Forms 1, 2 and 3 in acetonitrile, shaken 13 days at 22° C., PXRD): most stable form at room temperature | temperature up to which the form is thermodynamically stable ([3]; upper limit of stability range of the polymorphic form): 60-65 °C
SMILES: Cc1c(Cc2cccnc2S(=O)(=O)c2ccc(F)cc2)c2cc(F)ccc2n1CC(=O)O [Form 2, [5-fluoro-3-({2-[(4-fluorobenzene)sulfonyl]pyridin-3-yl}methyl)-2-methylindol-1-yl]-acetic acid]

More lines, now with the values behind:

SMILES: Cc1c(Cc2cccnc2S(=O)(=O)c2ccc(F)cc2)c2cc(F)ccc2n1CC(=O)O [Batch 1, [5-fluoro-3-({2-[(4-fluorobenzene)sulfonyl]pyridin-3-yl}methyl)-2-methylindol-1-yl]-acetic acid]
phase transition of sample recovered from DVS ([1]; FT-Raman pre- and post DVS): no phase transition | mass change at the end of the DVS measurement versus starting material ([1]; end humidity 50% r.h., scanning rate 5% r.h. per hour, cycle 50-0-95-50% r.h.): 0.6%

SMILES: Cc1c(Cc2cccnc2S(=O)(=O)c2ccc(F)cc2)c2cc(F)ccc2n1CC(=O)O [Form 1, [5-fluoro-3-({2-[(4-fluorobenzene)sulfonyl]pyridin-3-yl}methyl)-2-methylindol-1-yl]-acetic acid]
temperature range of thermodynamic stability (in words) [3]: thermodynamically stable at high temperatures

SMILES: Cc1c(Cc2cccnc2S(=O)(=O)c2ccc(F)cc2)c2cc(F)ccc2n1CC(=O)O [Form 3, [5-fluoro-3-({2-[(4-fluorobenzene)sulfonyl]pyridin-3-yl}methyl)-2-methylindol-1-yl]-acetic acid]
temperature range of thermodynamic stability (in words) [3]: stable at temperatures between the stability ranges of Forms 2 and 1
